Reference: patent US10335503B2, “Compound that specifically binds to AMPA receptor” (Public University Corporation Yokohama City University, priority 2015, dated 2019)

Tests used:
Details in all cases: K-2 at 1 × 10^−7 mol/L
Estrogen = assay: Receptor binding panel: Estrogen
α2B-Adrenergic = α2B-Adrenergic (Homo sapiens, UniProt P18089); assay: Receptor binding panel: α2B-Adrenergic
Endothelin ETA = Endothelin ETA (Homo sapiens, UniProt P25101); assay: Receptor binding panel: Endothelin ETA
Endothelin ETB = Endothelin ETB (Homo sapiens, UniProt P24530); assay: Receptor binding panel: Endothelin ETB
Sequence of Endothelin ETB (P24530 27-442): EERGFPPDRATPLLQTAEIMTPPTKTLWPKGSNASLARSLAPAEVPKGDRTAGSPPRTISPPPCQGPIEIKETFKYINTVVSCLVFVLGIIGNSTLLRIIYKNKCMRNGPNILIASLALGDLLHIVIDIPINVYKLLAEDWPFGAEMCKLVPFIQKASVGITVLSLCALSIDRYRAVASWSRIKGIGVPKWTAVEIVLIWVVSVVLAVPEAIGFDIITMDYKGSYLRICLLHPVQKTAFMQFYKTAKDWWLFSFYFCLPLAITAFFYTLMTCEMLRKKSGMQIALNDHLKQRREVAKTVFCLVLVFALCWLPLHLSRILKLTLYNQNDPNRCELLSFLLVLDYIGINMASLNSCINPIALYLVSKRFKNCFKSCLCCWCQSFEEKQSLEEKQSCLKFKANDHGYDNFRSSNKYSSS

Muscarinic M3 = Muscarinic M3 (Homo sapiens, UniProt P20309); assay: Receptor binding panel: Muscarinic M3
Sequence of Muscarinic M3 (P20309 whole entry): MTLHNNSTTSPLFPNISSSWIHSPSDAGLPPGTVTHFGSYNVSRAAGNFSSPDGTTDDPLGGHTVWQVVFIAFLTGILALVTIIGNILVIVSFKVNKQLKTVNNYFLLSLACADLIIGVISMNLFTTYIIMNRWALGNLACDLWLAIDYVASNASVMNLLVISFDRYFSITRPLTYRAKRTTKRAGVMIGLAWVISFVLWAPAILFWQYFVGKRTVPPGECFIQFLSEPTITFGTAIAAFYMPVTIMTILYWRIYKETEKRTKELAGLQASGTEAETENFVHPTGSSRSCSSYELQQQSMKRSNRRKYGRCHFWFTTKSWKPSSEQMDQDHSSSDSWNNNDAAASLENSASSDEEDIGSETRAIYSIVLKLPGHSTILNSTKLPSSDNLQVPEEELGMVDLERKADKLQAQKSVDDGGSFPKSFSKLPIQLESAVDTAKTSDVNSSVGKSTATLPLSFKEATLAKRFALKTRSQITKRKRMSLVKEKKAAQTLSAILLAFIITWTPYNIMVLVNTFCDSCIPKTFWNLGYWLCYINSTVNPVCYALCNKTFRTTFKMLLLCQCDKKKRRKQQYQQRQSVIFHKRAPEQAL

[1] = tested on: Glycine (Strychnine sensitive); assay: Receptor binding panel: Glycine (Strychnine sensitive)
Neurokinin NK2 = Neurokinin NK2 (Homo sapiens, UniProt P21452); assay: Receptor binding panel: Neurokinin NK2
Opiate κ = Opiate κ (Homo sapiens, UniProt P41145); assay: Receptor binding panel: Opiate κ
Sequence of Opiate κ (P41145 whole entry): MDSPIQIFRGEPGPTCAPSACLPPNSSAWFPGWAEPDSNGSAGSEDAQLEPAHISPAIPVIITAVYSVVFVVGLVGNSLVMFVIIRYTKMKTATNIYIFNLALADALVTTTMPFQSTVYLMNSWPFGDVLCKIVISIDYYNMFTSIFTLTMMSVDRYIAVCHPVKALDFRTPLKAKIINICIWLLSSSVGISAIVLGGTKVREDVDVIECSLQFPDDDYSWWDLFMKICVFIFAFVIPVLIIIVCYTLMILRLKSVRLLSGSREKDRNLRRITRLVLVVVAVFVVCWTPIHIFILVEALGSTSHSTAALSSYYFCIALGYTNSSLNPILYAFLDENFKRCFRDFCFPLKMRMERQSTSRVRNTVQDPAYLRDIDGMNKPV

GABA B = GABA B (Homo sapiens, UniProt Q9UBS5); assay: Receptor binding panel: GABA B
Serotonin 5HT2A = Serotonin 5HT2A (Homo sapiens, UniProt P28223); assay: Receptor binding panel: Serotonin 5HT2A
[2] = tested on: Glutamate (NMDA glycine site); assay: Receptor binding panel: Glutamate (NMDA glycine site)
α1A-Adrenergic = α1A-Adrenergic (Homo sapiens, UniProt P35348); assay: Receptor binding panel: α1A-Adrenergic
Sequence of α1A-Adrenergic (P35348 whole entry): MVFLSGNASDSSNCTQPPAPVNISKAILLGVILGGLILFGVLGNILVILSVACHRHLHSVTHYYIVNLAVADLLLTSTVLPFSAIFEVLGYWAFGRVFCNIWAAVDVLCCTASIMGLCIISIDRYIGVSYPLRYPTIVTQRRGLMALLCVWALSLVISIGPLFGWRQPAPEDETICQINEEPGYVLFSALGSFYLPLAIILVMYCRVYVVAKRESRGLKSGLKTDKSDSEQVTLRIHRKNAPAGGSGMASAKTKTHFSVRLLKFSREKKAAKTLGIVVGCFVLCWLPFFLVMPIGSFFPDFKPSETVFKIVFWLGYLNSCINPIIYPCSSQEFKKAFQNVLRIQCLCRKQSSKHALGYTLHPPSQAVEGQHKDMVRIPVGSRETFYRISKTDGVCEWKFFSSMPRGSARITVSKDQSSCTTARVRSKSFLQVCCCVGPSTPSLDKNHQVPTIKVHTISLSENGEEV

Serotonin 5HT1A = Serotonin 5HT1A (Homo sapiens, UniProt P08908); assay: Receptor binding panel: Serotonin 5HT1A
[3] = target: Norepinephrine transporter (Homo sapiens, UniProt P23975); assay: Receptor binding panel: Norepinephrine transporter
α2C-Adrenergic = α2C-Adrenergic (Homo sapiens, UniProt P18825); assay: Receptor binding panel: α2C-Adrenergic
Sequence of α2C-Adrenergic (P18825 whole entry): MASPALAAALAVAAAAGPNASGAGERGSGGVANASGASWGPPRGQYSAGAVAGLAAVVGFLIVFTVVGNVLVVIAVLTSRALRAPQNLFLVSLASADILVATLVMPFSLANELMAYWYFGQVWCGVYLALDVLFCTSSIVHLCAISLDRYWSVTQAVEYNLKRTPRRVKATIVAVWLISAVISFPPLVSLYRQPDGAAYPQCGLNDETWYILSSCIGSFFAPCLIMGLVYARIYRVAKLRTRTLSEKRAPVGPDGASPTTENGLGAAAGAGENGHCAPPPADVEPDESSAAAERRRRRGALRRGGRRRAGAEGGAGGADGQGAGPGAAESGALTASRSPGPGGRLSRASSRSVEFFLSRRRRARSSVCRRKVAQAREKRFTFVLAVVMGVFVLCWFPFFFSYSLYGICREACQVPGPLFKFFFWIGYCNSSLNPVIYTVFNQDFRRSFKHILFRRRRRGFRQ

Melatonin MT1 = Melatonin MT1 (Homo sapiens, UniProt P48039); assay: Receptor binding panel: Melatonin MT1
Sequence of Melatonin MT1 (P48039 whole entry): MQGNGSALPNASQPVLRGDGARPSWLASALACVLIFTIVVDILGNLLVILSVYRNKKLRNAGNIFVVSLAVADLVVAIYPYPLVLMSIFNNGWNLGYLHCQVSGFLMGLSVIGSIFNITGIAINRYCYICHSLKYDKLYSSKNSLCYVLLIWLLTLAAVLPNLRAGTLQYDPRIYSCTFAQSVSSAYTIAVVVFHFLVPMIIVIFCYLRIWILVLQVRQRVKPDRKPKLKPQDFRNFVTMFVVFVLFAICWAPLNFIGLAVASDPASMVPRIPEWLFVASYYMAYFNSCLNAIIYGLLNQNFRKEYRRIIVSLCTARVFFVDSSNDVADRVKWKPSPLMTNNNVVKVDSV

[4] = tested on: Ca channel (Type L, Dihydropyridine); assay: Receptor binding panel: Ca channel (Type L, Dihydropyridine)
Leukotriene B4 = assay: Receptor binding panel: Leukotriene B4
Opiate μ = Opiate μ (Homo sapiens, UniProt P35372); assay: Receptor binding panel: Opiate μ
Muscarinic M2 = Muscarinic M2 (Homo sapiens, UniProt P08172); assay: Receptor binding panel: Muscarinic M2
Neurokinin NK3 = Neurokinin NK3 (Homo sapiens, UniProt P29371); assay: Receptor binding panel: Neurokinin NK3
α2A-Adrenergic = α2A-Adrenergic (Homo sapiens, UniProt P08913); assay: Receptor binding panel: α2A-Adrenergic
GABA A (BZ central) = assay: Receptor binding panel: GABA A (BZ central)
Vasopressin V1 = Vasopressin V1 (Homo sapiens, UniProt P37288); assay: Receptor binding panel: Vasopressin V1
Sequence of Vasopressin V1 (P37288 whole entry): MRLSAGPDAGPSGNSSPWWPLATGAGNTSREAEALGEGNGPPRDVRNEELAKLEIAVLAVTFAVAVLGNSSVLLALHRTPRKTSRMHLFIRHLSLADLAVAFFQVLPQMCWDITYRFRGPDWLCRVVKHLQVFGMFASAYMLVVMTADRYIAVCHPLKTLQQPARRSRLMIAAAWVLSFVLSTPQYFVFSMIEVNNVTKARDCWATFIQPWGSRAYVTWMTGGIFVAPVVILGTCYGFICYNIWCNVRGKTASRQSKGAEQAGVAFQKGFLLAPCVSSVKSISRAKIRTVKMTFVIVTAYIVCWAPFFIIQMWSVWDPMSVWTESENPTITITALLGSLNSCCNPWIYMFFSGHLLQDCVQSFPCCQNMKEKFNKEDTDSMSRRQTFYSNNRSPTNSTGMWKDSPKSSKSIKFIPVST

Leukotriene D4 = assay: Receptor binding panel: Leukotriene D4
PAF = PAF (Homo sapiens, UniProt P25105); assay: Receptor binding panel: PAF
Sequence of PAF (P25105 whole entry): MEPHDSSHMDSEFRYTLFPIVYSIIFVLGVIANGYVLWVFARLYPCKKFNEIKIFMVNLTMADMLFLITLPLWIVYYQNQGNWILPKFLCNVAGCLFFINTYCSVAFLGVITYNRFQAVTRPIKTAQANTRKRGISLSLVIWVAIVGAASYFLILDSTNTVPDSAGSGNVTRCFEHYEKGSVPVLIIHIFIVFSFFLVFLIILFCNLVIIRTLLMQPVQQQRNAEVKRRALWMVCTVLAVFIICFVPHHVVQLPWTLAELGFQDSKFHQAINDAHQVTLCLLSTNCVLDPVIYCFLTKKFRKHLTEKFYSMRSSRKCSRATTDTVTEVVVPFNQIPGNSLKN

[5] = tested on: Glutamate (NMDA phencyclidine site); assay: Receptor binding panel: Glutamate (NMDA phencyclidine site)
Histamine H3 = Histamine H3 (Homo sapiens, UniProt Q9Y5N1); assay: Receptor binding panel: Histamine H3
Sequence of Histamine H3 (Q9Y5N1 whole entry): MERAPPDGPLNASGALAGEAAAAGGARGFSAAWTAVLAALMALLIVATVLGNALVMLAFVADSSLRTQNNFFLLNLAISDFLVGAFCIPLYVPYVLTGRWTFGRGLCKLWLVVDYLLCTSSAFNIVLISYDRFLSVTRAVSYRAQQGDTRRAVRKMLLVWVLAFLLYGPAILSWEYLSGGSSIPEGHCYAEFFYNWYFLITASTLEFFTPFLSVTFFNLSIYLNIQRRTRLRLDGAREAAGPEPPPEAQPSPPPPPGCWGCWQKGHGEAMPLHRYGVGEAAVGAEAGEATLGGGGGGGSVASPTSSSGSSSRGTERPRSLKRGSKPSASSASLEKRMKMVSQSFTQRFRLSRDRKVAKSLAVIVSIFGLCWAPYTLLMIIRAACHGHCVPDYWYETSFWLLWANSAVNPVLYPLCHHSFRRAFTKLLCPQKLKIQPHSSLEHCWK

Glutamate (Kainate) = assay: Receptor binding panel: Glutamate (Kainate)
Angiotensin AT2 = Angiotensin AT2 (Homo sapiens, UniProt P50052); assay: Receptor binding panel: Angiotensin AT2
Sequence of Angiotensin AT2 (P50052 whole entry): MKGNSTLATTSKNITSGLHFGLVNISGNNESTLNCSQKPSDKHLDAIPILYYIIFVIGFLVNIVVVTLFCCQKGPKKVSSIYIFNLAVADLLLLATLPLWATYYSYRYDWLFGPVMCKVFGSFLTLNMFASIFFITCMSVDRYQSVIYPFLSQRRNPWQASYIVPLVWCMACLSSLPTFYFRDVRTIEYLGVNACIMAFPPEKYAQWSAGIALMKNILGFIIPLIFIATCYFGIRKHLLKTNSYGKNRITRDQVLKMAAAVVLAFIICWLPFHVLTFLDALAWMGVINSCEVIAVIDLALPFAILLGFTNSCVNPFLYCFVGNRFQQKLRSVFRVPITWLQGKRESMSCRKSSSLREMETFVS

Androgen = Androgen (Homo sapiens, UniProt P10275); assay: Receptor binding panel: Androgen
Angiotensin AT1 = Angiotensin AT1 (Homo sapiens, UniProt P30556); assay: Receptor binding panel: Angiotensin AT1
Serotonin transporter = Serotonin transporter (Homo sapiens, UniProt P31645); assay: Receptor binding panel: Serotonin transporter

Sequence of α2B-Adrenergic (P18089 whole entry): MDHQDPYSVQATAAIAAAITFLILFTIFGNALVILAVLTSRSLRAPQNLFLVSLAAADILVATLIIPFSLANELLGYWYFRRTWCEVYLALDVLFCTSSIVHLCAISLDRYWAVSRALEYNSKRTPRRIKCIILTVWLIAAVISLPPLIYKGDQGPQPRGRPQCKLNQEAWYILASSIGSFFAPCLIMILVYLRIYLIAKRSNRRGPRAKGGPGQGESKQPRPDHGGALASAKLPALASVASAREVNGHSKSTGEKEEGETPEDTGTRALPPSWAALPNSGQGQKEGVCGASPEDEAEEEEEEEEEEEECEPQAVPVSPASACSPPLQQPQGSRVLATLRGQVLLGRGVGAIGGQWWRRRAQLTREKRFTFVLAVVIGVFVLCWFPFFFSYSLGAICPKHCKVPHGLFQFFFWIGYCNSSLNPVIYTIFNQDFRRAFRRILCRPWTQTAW

For CN(CCSc1cc(F)c(OCC(N)=O)c(F)c1)S(=O)(=O)c1ccccc1 [K-2, {4-[2-(benzenesulfonyl-methyl-amino)-ethylsulfanil]-2,6-difluoro-phenoxy}-acetamide], which “Inhibition (%)” value (Estrogen) is on record?
The value was 2.83%.

What about the inhibition at 0.1 µM (α2B-Adrenergic) of the same compound?
The inhibition at 0.1 µM was 5.83%.

And the inhibition at 0.1 µM (Endothelin ETA)?
Its inhibition at 0.1 µM is 1.81%.

What about the inhibition at 0.1 µM (Endothelin ETB) of the same compound?
The inhibition at 0.1 µM was 0%.

What about the inhibition at 0.1 µM (Muscarinic M3) of the same compound?
Its inhibition at 0.1 µM is 5.99%.

What about the “Inhibition (%)” value [1] of the same compound?
Its value is 8.46%.

What about the inhibition at 0.1 µM (Neurokinin NK2) of the same compound?
Its inhibition at 0.1 µM is 0.61%.

And the inhibition at 0.1 µM (Opiate κ)?
The inhibition at 0.1 µM was 0%.

And the inhibition at 0.1 µM (GABA B)?
Its inhibition at 0.1 µM is 1.9%.

And the inhibition at 0.1 µM (Serotonin 5HT2A)?
The inhibition at 0.1 µM was 9.32%.

And the “Inhibition (%)” value [2]?
The value was 0.64%.

What about the inhibition at 0.1 µM (α1A-Adrenergic) of the same compound?
The inhibition at 0.1 µM was 0.21%.

What about the inhibition at 0.1 µM (Serotonin 5HT1A) of the same compound?
Its inhibition at 0.1 µM is 1.98%.

And the inhibition at 0.1 µM [3]?
Its inhibition at 0.1 µM is 0%.

And the inhibition at 0.1 µM (α2C-Adrenergic)?
Its inhibition at 0.1 µM is 5.82%.

What about the inhibition at 0.1 µM (Melatonin MT1) of the same compound?
Its inhibition at 0.1 µM is 0.11%.

What about the “Inhibition (%)” value [4] of the same compound?
Its value is 0.53%.

What about the “Inhibition (%)” value (Leukotriene B4) of the same compound?
The value was 0.00%.

What about the inhibition at 0.1 µM (Opiate μ) of the same compound?
Its inhibition at 0.1 µM is 8.78%.

What about the inhibition at 0.1 µM (Muscarinic M2) of the same compound?
The inhibition at 0.1 µM was 0.51%.

What about the inhibition at 0.1 µM (Neurokinin NK3) of the same compound?
Its inhibition at 0.1 µM is 0%.

And the inhibition at 0.1 µM (α2A-Adrenergic)?
Its inhibition at 0.1 µM is 8.77%.

What about the “Inhibition (%)” value (GABA A (BZ central)) of the same compound?
The value was 1.54%.

And the inhibition at 0.1 µM (Vasopressin V1)?
The inhibition at 0.1 µM was 4.76%.

And the “Inhibition (%)” value (Leukotriene D4)?
The value was 0.16%.

What about the inhibition at 0.1 µM (PAF) of the same compound?
Its inhibition at 0.1 µM is 0%.

What about the “Inhibition (%)” value [5] of the same compound?
Its value is 5.02%.

And the inhibition at 0.1 µM (Histamine H3)?
Its inhibition at 0.1 µM is 0%.

And the “Inhibition (%)” value (Glutamate (Kainate))?
Its value is 1.68%.

And the inhibition at 0.1 µM (Angiotensin AT2)?
The inhibition at 0.1 µM was 1.05%.

And the inhibition at 0.1 µM (Androgen)?
The inhibition at 0.1 µM was 0.57%.

And the inhibition at 0.1 µM (Angiotensin AT1)?
Its inhibition at 0.1 µM is 1.52%.

What about the inhibition at 0.1 µM (Serotonin transporter) of the same compound?
The inhibition at 0.1 µM was 0.17%.
